The text below walks through data of patent US8741892B2, “Compounds” (Boehringer Ingelheim International GmbH, priority 2011, dated 2014).

T1 sequence (P41594 21-1212): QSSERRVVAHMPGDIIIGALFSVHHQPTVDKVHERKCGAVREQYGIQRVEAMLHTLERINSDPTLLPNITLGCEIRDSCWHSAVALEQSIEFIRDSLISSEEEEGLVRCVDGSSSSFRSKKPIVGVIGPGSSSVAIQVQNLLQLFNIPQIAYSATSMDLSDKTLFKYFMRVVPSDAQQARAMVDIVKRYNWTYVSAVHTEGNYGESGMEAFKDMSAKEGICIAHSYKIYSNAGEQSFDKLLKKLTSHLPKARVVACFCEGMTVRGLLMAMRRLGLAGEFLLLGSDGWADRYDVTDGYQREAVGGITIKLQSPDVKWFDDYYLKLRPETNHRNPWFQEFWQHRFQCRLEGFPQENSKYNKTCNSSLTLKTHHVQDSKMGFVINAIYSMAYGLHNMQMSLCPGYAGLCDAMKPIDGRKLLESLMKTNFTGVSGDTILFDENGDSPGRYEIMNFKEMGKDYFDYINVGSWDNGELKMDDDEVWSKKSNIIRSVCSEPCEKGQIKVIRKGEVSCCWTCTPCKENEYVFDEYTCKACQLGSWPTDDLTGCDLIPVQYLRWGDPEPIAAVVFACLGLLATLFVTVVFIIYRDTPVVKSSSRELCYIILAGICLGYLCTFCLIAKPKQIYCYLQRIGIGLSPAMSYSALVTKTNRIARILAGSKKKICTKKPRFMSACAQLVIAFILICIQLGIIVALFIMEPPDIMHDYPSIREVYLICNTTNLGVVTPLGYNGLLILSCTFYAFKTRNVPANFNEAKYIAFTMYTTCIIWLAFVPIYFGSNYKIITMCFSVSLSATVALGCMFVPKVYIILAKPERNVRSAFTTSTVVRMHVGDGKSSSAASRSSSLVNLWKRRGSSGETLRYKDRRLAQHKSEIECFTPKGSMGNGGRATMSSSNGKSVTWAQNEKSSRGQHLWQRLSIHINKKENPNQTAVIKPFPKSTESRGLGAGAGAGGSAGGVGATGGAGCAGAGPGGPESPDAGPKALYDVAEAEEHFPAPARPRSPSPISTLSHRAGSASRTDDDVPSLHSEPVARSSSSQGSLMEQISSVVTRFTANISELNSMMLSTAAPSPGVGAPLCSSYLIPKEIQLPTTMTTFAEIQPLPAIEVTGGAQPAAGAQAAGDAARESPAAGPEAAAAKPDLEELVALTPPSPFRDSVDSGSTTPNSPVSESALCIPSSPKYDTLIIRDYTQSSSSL

This assay has as its target T1, human recombinant mGluR5 (Homo sapiens, UniProt P41594).
T1 construct: expressed in transfected cells; host or cells: HEK 293
Nature of the assay: positive modulation of mGluR5, calcium based FLIPR assay. Particulars: HEK 293 cell line expressing human recombinant mGluR5; EC50 of the modulation from peak Ca fluorescence signal after glutamate at approx. 5% basal stimulation. As for the experimental part: The positive modulation of mGluR5 is measured in a HEK 293 cell line expressing human recombinant mGluR5 and is detected with calcium based FLIPR assay. The cells are cultured with DMEM supplemented with 10% FCS, 2 μg/mL tetracycline, 100 μg/mL hygromycin and 500 μg/mL geneticin. The cell culture media is exchanged for tetracycline-free cell culture media 3-7 days before the assay. One day before the assay the cell culture medium is exchanged to DMEM without glutamine and phenol red and supplemented with 10% FCS, 100 μg/mL hygromycin and 500 μg/mL geneticin. On the assay day, the medium of the subconfluent cultures is removed and the cells are detached by addition of 2.5 ml EDTA (0.02%) per 175 cm2 culture flask for 1 minute. The cells are resuspend in Ringer solution (140 mM NaCl, 5 mM KCl, 2.5 mM CaCl2, 1.5 mM MgCl2, 5 mM Glucose, 10 mM Hepes; adjusted to pH 7.4 with NaOH), pooled and Ringer solution added to adjust the volume to 50 mL. The cell suspension is centrifuged for […] at 1500 U/min (425 g). The supernatant is removed and the cells washed a second time with 50 ml fresh Ringer solution and centrifuged again as before. The supernatant is again removed and the pellet resuspended in Ringer solution to 1,000,000 cells/ml (1×10^6 cells/mL). The cells are plated onto BD BioCoat Poly-D-Lysine 384 well plates (20.000 cells/well; 20 μl/well). The lid covered plates are then incubated until use at 37° C./10% CO2. For dye loading, 20 μl of Calcium-4 assay kit solution (prepared according to the manufacturer's description in Ringer solution) are added to the cells and the plates are incubated for […] 37° C. and then […] at room temperature.
Controls, Compound Dilution and Assay Execution:
Each assay plate contained wells with “high” and “low” controls:
Low controls 1% DMSO/ringer solution+basal glutamate activation (defined as 100% CTL).
High controls 10 μM CDPPB+basal glutamate activation (defined as 200% CTL).
Test compounds are dissolved and diluted in DMSO to 100-fold the desired concentrations. In a second step, the compounds are diluted in Ringer solution such that the compounds are 4-fold more concentrated than the desired final assay concentration. The final DMSO concentration was 1%.
20 μl of each compound solution are then transferred to the assay plate and the Ca2+ kinetic is measured to determine any intrinsic compound activity. After 5 mM incubation in the FLIPR device, the second stimulation with 20 μl of glutamate in Ringer solution (glutamate concentration adjusted to approximately 5% basal stimulation of the maximal possible glutamate effect) is added and the kinetic Ca2+ response of the wells was measured for the modulation effect.
The peak height of the Ca release related fluorescence signal (9-66) is used for the EC50. The EC50 of the modulation is calculated over a nonlinear regression with GraphPad Prism (Table 1).
By EC50 is commonly meant the concentration giving half of the maximal effect. As for `Cc1nc2c(s1)CCN(C(=O)Cn1nc(-c3ccc(F)c(C)c3)cc1-c1ccccc1)CC2` [Example 7.02.015], the EC50 is 15 nM.

Regarding `Cc1cc(-c2cc(-c3ccccc3)n(CC(=O)N3CCC(c4ncccn4)CC3)n2)ccc1F` [Example 7.02.016], the EC50 was found to be 110 nM.

For the compound `Cc1cc(-c2cc(-c3ccccc3)n(CC(=O)N3CCC(c4nnc(C(C)C)o4)CC3)n2)ccc1F` [Example 7.02.017], the concentration giving a half-maximal response (EC50) worked out at 68 nM.

Regarding `Cc1cc(-c2cc(-c3ccccc3)n(CC(=O)N3CCC(C)(c4nnc(C(C)C)o4)CC3)n2)ccc1F` [Example 7.02.018], the half-maximal effective concentration (EC50) came to 693 nM.

On to `Cc1nnc(C2CCN(C(=O)Cn3nc(-c4ccc(F)c(C)c4)cc3-c3ccccc3)CC2)o1` [Example 7.02.019], for which the EC50 turned out to be 36 nM.

For `Cc1nc2c(s1)CN(C(=O)Cn1nc(-c3ccc(F)c(C)c3)cc1-c1ccccc1)C2` [Example 7.02.020], the EC50 was found to be 21 nM.

With `COc1cc(C2CCN(C(=O)Cn3nc(-c4ccc(F)c(C)c4)cc3-c3ccccc3)CC2)ncn1` [Example 7.02.021], the EC50 stood at 55 nM.

With `COc1cc(C2=CCN(C(=O)Cn3nc(-c4ccc(F)c(C)c4)cc3-c3ccccc3)CC2)ncn1` [Example 7.02.022], the EC50 came to 11 nM.

`Cc1cc(-c2cc(-c3ccccc3)n(CC(=O)N3CCc4nc(N)sc4CC3)n2)ccc1F` [Example 7.02.023]: the EC50 stood at 12 nM.

Take `CCc1cc(-c2ccc(F)c(C)c2)nn1CC(=O)N1CCc2nc(C)sc2CC1` [Example 7.02.024]: the EC50 is 29 nM.

For `CCc1cc(-c2ccc(F)c(C)c2)nn1CC(=O)N1Cc2nc(C)sc2C1` [Example 7.02.025], the EC50 was found to be 148 nM.

Turning to `CCc1cc(-c2ccc(F)c(C)c2)nn1CC(=O)N1CCc2nc(N)sc2CC1` [Example 7.02.026], the EC50 is 83 nM.

For the compound `CCc1cc(-c2ccc(F)c(C)c2)nn1CC(=O)N1CCN(c2cccc(OC)c2)C(=O)C1` [Example 7.02.027], the EC50 came to 58 nM.

With `CCc1cc(-c2ccc(F)cc2)nn1CC(=O)N1CCN(c2cccc(OC)c2)C(=O)C1` [Example 7.02.028], the EC50 was 943 nM.

Turning to `CCc1cc(-c2ccc(F)cc2)nn1CC(=O)N1CCc2nc(C)sc2CC1` [Example 7.02.029], the EC50 came out at 329 nM.

As to `CCc1cc(-c2ccc(F)cc2)nn1CC(=O)N1CCc2nc(N)sc2CC1` [Example 7.02.030], the EC50 was 1760 nM.

Take `CCc1cc(-c2ccc(F)cc2)nn1CC(=O)N1Cc2nc(C)sc2C1` [Example 7.02.031]: the EC50 is 1240 nM.

Turning to `CCCc1cc(-c2ccc(F)c(C)c2)nn1CC(=O)N1CCN(c2cccc(OC)c2)C(=O)C1` [Example 7.02.032], the EC50 was 37 nM.

Regarding `CCCc1cc(-c2ccc(F)c(C)c2)nn1CC(=O)N1CCc2nc(N)sc2CC1` [Example 7.02.033], the EC50 was found to be 29 nM.

Consider `CCCc1cc(-c2ccc(F)c(C)c2)nn1CC(=O)N1Cc2nc(C)sc2C1` [Example 7.02.034], for which the EC50 came out at 42 nM.

As for `Cc1nc2c(s1)CCN(C(=O)Cn1nc(-c3ccc(F)c(C)c3)cc1C1CC1)CC2` [Example 7.02.035], the EC50 was determined as 35 nM.

Consider `Cc1cc(-c2cc(C3CC3)n(CC(=O)N3CCc4nc(N)sc4CC3)n2)ccc1F` [Example 7.02.036], for which the EC50 was 136 nM.

As for `CNc1nc2c(s1)CCN(C(=O)Cn1nc(-c3ccc(F)c(C)c3)cc1C1CC1)CC2` [Example 7.02.037], the EC50 came to 194 nM.

For `COc1ccc(-c2cc(C(C)C)n(CC(=O)N3CCc4nc(N)sc4CC3)n2)cc1` [Example 7.02.038], the EC50 stood at 210 nM.

As for `COc1ccc(-c2cc(C(C)C)n(CC(=O)N3CCc4cc(OC)ccc4C3)n2)cc1` [Example 7.02.039], the EC50 came out at 915 nM.

On to `COc1ccc(-c2cc(C(C)C)n(CC(=O)N3Cc4ccc(OC)cc4C3)n2)cc1` [Example 7.02.040], for which the EC50 was 1700 nM.

As for `COc1ccc(-c2cc(C(C)C)n(CC(=O)N3CCN(c4cccc(OC)c4)C(=O)C3)n2)cc1` [Example 7.02.041], the EC50 amounted to 1220 nM.

With `COc1ccc(-c2cc(C(C)C)n(CC(=O)N3CCc4nc(N)sc4CC3)n2)cc1` [Example 7.02.042], the EC50 was 192 nM.

For the compound `COc1ccc(-c2cc(C(C)C)n(CC(=O)N3CCc4nc(C)oc4C3)n2)cc1` [Example 7.02.043], the EC50 came out at 1740 nM.

With `COc1ccc(-c2cc(C(C)C)n(CC(=O)N3CCc4ccc(OC)cc4CC3)n2)cc1` [Example 7.02.044], the EC50 came out at 735 nM.

With `COc1ccc(-c2cc(C(C)C)n(CC(=O)N3Cc4nc(C)sc4C3)n2)cc1` [Example 7.02.045], the EC50 stood at 1410 nM.

Turning to `COc1ccc(-c2cc(C(C)C)n(CC(=O)N3CCc4nc(N)sc4CC3)n2)cc1C` [Example 7.02.046], the EC50 was 881 nM.

Take `COc1ccc(-c2cc(C(C)C)n(CC(=O)N3CCc4nc(C)sc4CC3)n2)cc1C` [Example 7.02.047]: the half-maximal effective concentration (EC50) is 221 nM.

For `Cc1nc2c(s1)CCN(C(=O)Cn1nc(-c3ccc(F)c(C)c3)cc1C1CCCCC1)CC2` [Example 7.02.048], the EC50 came to 31 nM.

Consider `CNc1nc2c(s1)CCN(C(=O)Cn1nc(-c3ccc(F)c(C)c3)cc1C1CCCCC1)CC2` [Example 7.02.049], for which the EC50 is 157 nM.

With `Cc1cc(-c2cc(C3CCCCC3)n(CC(=O)N3CCc4nc(N)sc4CC3)n2)ccc1F` [Example 7.02.050], the EC50 came to 183 nM.

On to `COc1cc(-c2cc(C(C)C)n(CC(=O)N3CCc4nc(C)sc4CC3)n2)ccc1F` [Example 7.02.051], for which the EC50 turned out to be 190 nM.

Turning to `COc1cccc(-c2cc(C3CCCCC3)n(CC(=O)N3CCc4nc(N)sc4CC3)n2)c1` [Example 7.02.052], the EC50 came to 297 nM.

In the case of `COc1cccc(-c2cc(C3CCCCC3)n(CC(=O)N3CCN(c4cccc(OC)c4)C(=O)C3)n2)c1` [Example 7.02.053], the concentration giving a half-maximal response (EC50) was 552 nM.

`Cc1cc(-c2cc(C(C)C)n(CC(=O)N3CCc4nc(N)sc4CC3)n2)ccc1F` [Example 7.02.054]: the EC50 is 186 nM.

Regarding `Cc1nc2c(s1)CCN(C(=O)Cn1nc(-c3ccc(F)c(C)c3)cc1C(C)C)CC2` [Example 7.02.055], the EC50 was found to be 42 nM.

On to `Cc1nc2c(s1)CCN(C(=O)Cn1nc(-c3ccc(F)cn3)cc1-c1ccccc1)CC2` [Example 7.02.056], for which the EC50 turned out to be 245 nM.

Take `Cc1nc2c(s1)CN(C(=O)Cn1nc(-c3ccc(F)cn3)cc1-c1ccccc1)C2` [Example 7.02.057]: the concentration giving a half-maximal response (EC50) is 913 nM.

Regarding `Nc1nc2c(s1)CCN(C(=O)Cn1nc(-c3ccc(F)cn3)cc1-c1ccccc1)CC2` [Example 7.02.058], the EC50 amounted to 750 nM.

Turning to `Cc1nc2c(s1)CN(C(=O)Cn1nc(-c3ccc(F)cn3)cc1-c1ccc(F)cc1)C2` [Example 7.02.059], the EC50 is 287 nM.

For the compound `Nc1nc2c(s1)CCN(C(=O)Cn1nc(-c3ccc(F)cn3)cc1-c1ccc(F)cc1)CC2` [Example 7.02.060], the EC50 came to 760 nM.

As for `Cc1nc2c(s1)CCN(C(=O)Cn1nc(-c3ccc(F)cn3)cc1-c1ccc(F)cc1)CC2` [Example 7.02.061], the EC50 came to 96 nM.

In the case of `COc1cc(-c2cc(C(C)C)n(CC(=O)N3CCc4nc(N)sc4CC3)n2)ccc1F` [Example 7.02.062], the EC50 amounted to 323 nM.

As to `O=C(Cn1nc(-c2ccccc2)cc1-c1ccccc1)N1CCN(Cc2ccccc2)C(=O)C1` [Example 7.02.063], the 50% effective concentration (EC50) was found to be 1730 nM.

`COc1cccc(N2CCN(C(=O)Cn3nc(-c4cc(C)c(C)cn4)cc3-c3ccccc3)CC2=O)c1` [Example 7.02.064]: the EC50 came to 177 nM.

In the case of `CCc1cccc(-c2cc(CC)n(CC(=O)N3CCN(c4cccc(OC)c4)C(=O)C3)n2)c1` [Example 7.02.065], the EC50 was determined as 194 nM.

In the case of `CCc1cc(-c2ccc(F)c(C)c2)nn1CC(=O)N1CCc2nc(C)oc2CC1` [Example 7.02.066], the EC50 was found to be 24 nM.

Take `CCCc1cc(-c2ccc(F)c(C)c2)nn1CC(=O)N1CCc2nc(C)sc2CC1` [Example 7.02.067]: the EC50 came out at 6 nM.

As for `CCCc1cc(-c2ccc(F)c(C)c2)nn1CC(=O)N1CCC(c2cc(OC)ncn2)CC1` [Example 7.02.068], the EC50 was 199 nM.

For `CCCc1cc(-c2ccc(F)c(C)c2)nn1CC(=O)N1CCC(c2ncc(OC)cn2)CC1` [Example 7.02.069], the EC50 stood at 187 nM.
